SMILES strings stand for the structures.

These results are taken from ChEMBL document CHEMBL3769350, “Synthesis and biological evaluation of piperazine group-linked bivalent -carbolines as potential antitumor agents” (Medchemcomm, 2015).

Format in all cases: functional, cell-based
For one assay, the system named is 769-P. The assay is described as follows: Cytotoxicity against human 769-P cells by MTT assay. A general note: Tetrazolium dyes change colour on reduction, which living cells bring about.
The next assay concerns HT-29. The assay is described as follows: Cytotoxicity against human HT-29 cells by MTT assay.
For the next assay, the system named is A-375. The assay is described as follows: Cytotoxicity against human A375 cells by MTT assay.
Assay [1] can be described thus: Cytotoxicity against human SKOV3 cells by MTT assay. To be noted: SK-OV-3.
The nature of assay [2]: Cytotoxicity against mouse LLC cells by MTT assay. The conditions noted are these: Lewis lung carcinoma.
Assay [3] is described as follows: Cytotoxicity against human ECA109 cells by MTT assay. The conditions noted are these: ECa-109.
The subject of the next assay is CWR22R. The assay is described as follows: Cytotoxicity against human 22Rv1 cells by MTT assay.
The test system of another assay is HepG2. The assay is described as follows: Cytotoxicity against human HepG2 cells by MTT assay.
Assay [4] in a line: Cytotoxicity against human BGC823 cells by MTT assay. The conditions noted are these: BGC-823.
The next assay deals with MCF7. The assay is described as follows: Cytotoxicity against human MCF7 cells by MTT assay.

As for `CCn1c2ccccc2c2cc(CN3CCN(Cc4cc5c6ccccc6n(CC)c5c(-c5ccccc5)n4)CC3)nc(-c3ccccc3)c21`, the IC50 (commonly the point on the concentration scale where inhibition reaches its midpoint) was 29.6 µM in the assay on 769-P; 17.6 µM in the assay on HT-29; 9.92 µM in the assay on A-375; 19.8 µM in assay [1]; 14 µM in assay [2]; greater than 100 µM in assay [3]. Moreover, the IC50 in the assay on CWR22R is 24.9 µM; in the assay with HepG2, greater than 100 µM; in assay [4], 38.8 µM; with MCF7, greater than 100 µM.

`c1ccc(CCCn2c3ccccc3c3cc(CN4CCN(Cc5cc6c7ccccc7n(CCCc7ccccc7)c6c(-c6ccccc6)n5)CC4)nc(-c4ccccc4)c32)cc1`: the IC50 (in the assay with 769-P; in the assay with HT-29; with A-375; in [1]; in assay [2]; in [3]) was greater than 100 µM in each case. In addition, the IC50 (in the assay on CWR22R; with HepG2; in assay [4]; in the assay on MCF7) was greater than 100 µM in each case.

Take `CCCCn1c2ccccc2c2cc(CN3CCN(Cc4cc5c6ccccc6n(CCCC)c5cn4)CC3)ncc21`: the IC50 was determined as 38.2 µM in the assay with 769-P; 17.1 µM in the assay on HT-29; 16.8 µM with A-375; 11.3 µM in [1]; 2.36 µM in assay [2]; 26.4 µM in assay [3]. Moreover, the IC50 in the assay with CWR22R amounted to 43.9 µM; with HepG2, 15.2 µM; in assay [4], 9.52 µM; with MCF7, 29.2 µM.

On to `CCCCn1c2ccccc2c2cc(CN3CCN(Cc4cc5c6ccccc6n(CCCC)c5c(-c5ccc(OC)cc5)n4)CC3)nc(-c3ccc(OC)cc3)c21`, for which the IC50 in the assay on 769-P came to 16.6 µM; with HT-29, 11.8 µM; in the assay with A-375 it was 19.6 µM; in assay [1], 24.6 µM; in assay [2], 27.4 µM; in assay [3], 24.7 µM. Moreover, the IC50 came to 27.6 µM in the assay with CWR22R, 25.7 µM in the assay with HepG2, 28.8 µM in assay [4] and 20.6 µM in the assay with MCF7.

For the compound `c1ccc(Cn2c3ccccc3c3cc(CN4CCN(Cc5cc6c7ccccc7n(Cc7ccccc7)c6c(-c6ccccc6)n5)CC4)nc(-c4ccccc4)c32)cc1`, the IC50 (with 769-P; with HT-29; in the assay on A-375; in assay [1]; in [2]; in assay [3]) was greater than 100 µM in each case. Further, the IC50 (in the assay with CWR22R; in the assay on HepG2; in assay [4]; in the assay on MCF7) was greater than 100 µM in each case.

As to `Cn1c2ccccc2c2cc(CN3CCN(Cc4cc5c6ccccc6n(C)c5c(-c5ccccc5)n4)CC3)nc(-c3ccccc3)c21`, the IC50 was greater than 100 µM in the assay on 769-P; greater than 100 µM with HT-29; 40.9 µM with A-375; greater than 100 µM in [1]; 34.5 µM in assay [2]; greater than 100 µM in assay [3]. The IC50 with CWR22R was 54.3 µM; in the assay with HepG2, greater than 100 µM; in assay [4] it was greater than 100 µM; with MCF7, greater than 100 µM.

On to `COc1ccc(-c2nc(CN3CCN(Cc4cc5c6ccccc6n(Cc6ccccc6)c5c(-c5ccc(OC)c(OC)c5)n4)CC3)cc3c4ccccc4n(Cc4ccccc4)c23)cc1OC`, for which the IC50 with 769-P is greater than 100 µM; with HT-29 it was greater than 100 µM; with A-375, greater than 100 µM; in [1], greater than 100 µM; in assay [2] it was 36.4 µM; in assay [3] it was greater than 100 µM. For the same compound, the IC50 (in the assay with CWR22R; in the assay on HepG2; in assay [4]; with MCF7) was greater than 100 µM in each case.

As for `COc1ccc(-c2nc(CN3CCN(Cc4cc5c6ccccc6n(CCCc6ccccc6)c5c(-c5ccc(OC)cc5)n4)CC3)cc3c4ccccc4n(CCCc4ccccc4)c23)cc1`, the IC50 (in the assay with 769-P; with HT-29; in the assay on A-375; in assay [1]; in [2]; in [3]) was greater than 100 µM each time. In addition, the IC50 (in the assay with CWR22R; in the assay on HepG2; in [4]; in the assay with MCF7) was greater than 100 µM throughout.

With `COc1ccc(-c2nc(CN3CCN(Cc4cc5c6ccccc6n(CCCc6ccccc6)c5c(-c5ccc(OC)c(OC)c5)n4)CC3)cc3c4ccccc4n(CCCc4ccccc4)c23)cc1OC`, the IC50 (in the assay with 769-P; in the assay with HT-29; in the assay with A-375; in [1]; in [2]; in assay [3]) was greater than 100 µM in each case. For the same compound, the IC50 (in the assay with CWR22R; in the assay on HepG2; in assay [4]; in the assay on MCF7) was greater than 100 µM in each case.

`CCCCn1c2ccccc2c2cc(CN3CCN(Cc4cc5c6ccccc6n(CCCC)c5c(-c5ccc(OC)c(OC)c5)n4)CC3)nc(-c3ccc(OC)c(OC)c3)c21`: the IC50 was determined as 10 µM in the assay on 769-P; 11.8 µM in the assay with HT-29; 15.5 µM in the assay with A-375; 25.7 µM in [1]; 9.78 µM in [2]; 32.4 µM in assay [3]. The IC50 with CWR22R came to 19.5 µM; in the assay with HepG2, 17 µM; in assay [4], 6.21 µM; in the assay on MCF7, 14.5 µM.

Regarding `CCn1c2ccccc2c2cc(CN3CCN(Cc4cc5c6ccccc6n(CC)c5cn4)CC3)ncc21`, the IC50 in the assay with 769-P is 64.3 µM; in the assay on HT-29 it was 32.8 µM; in the assay on A-375 it was 49.9 µM; in [1] it was 24.4 µM; in [2], 13.8 µM; in assay [3], greater than 100 µM. The IC50 with CWR22R was 52.3 µM; with HepG2 it was greater than 100 µM; in assay [4] it was 68.6 µM; in the assay with MCF7, 82.8 µM.

`CCCCn1c2ccccc2c2cc(CN3CCN(Cc4cc5c6ccccc6n(CCCC)c5c(-c5cc(OC)c(OC)c(OC)c5)n4)CC3)nc(-c3cc(OC)c(OC)c(OC)c3)c21`: the IC50 with 769-P was found to be 15.6 µM; with HT-29, 13.5 µM; in the assay on A-375, 36 µM; in assay [1] it was 7.11 µM; in [2], 19.8 µM; in assay [3] it was 18.3 µM. Further, the IC50 with CWR22R was 6.82 µM; in the assay with HepG2 it was 7.26 µM; in assay [4], 26.6 µM; in the assay on MCF7, 12.5 µM.

As for `Cc1nc(CN2CCN(Cc3cc4c5ccccc5n(Cc5cccc(Cl)c5)c4c(C)n3)CC2)cc2c3ccccc3n(Cc3cccc(Cl)c3)c12`, the IC50 in the assay with 769-P is 45.8 µM; in the assay on HT-29, 25.2 µM; in the assay with A-375, 32.4 µM; in assay [1], 51.4 µM; in [2], 12 µM; in assay [3], 57.6 µM. Further, the IC50 in the assay on CWR22R was found to be 40.8 µM; with HepG2 it was 38.1 µM; in assay [4], 40.8 µM; in the assay with MCF7, 43.7 µM.

As for `CCn1c2ccccc2c2cc(CN3CCN(Cc4cc5c6ccccc6n(CC)c5c(-c5ccc(OC)c(OC)c5)n4)CC3)nc(-c3ccc(OC)c(OC)c3)c21`, the IC50 in the assay with 769-P is 61.1 µM; in the assay with HT-29, 34.3 µM; in the assay on A-375, 37.3 µM; in assay [1], 32.7 µM; in assay [2], 9.68 µM; in assay [3] it was 68.5 µM. In addition, the IC50 amounted to 42.3 µM with CWR22R, 27.2 µM in the assay on HepG2, 19.8 µM in [4] and 27.3 µM in the assay on MCF7.

On to `COc1cc(-c2nc(CN3CCN(Cc4cc5c([nH]c6ccccc65)c(-c5cc(OC)c(OC)c(OC)c5)n4)CC3)cc3c2[nH]c2ccccc23)cc(OC)c1OC`, for which the IC50 (with 769-P; in the assay with HT-29; with A-375; in [1]; in assay [2]; in assay [3]) was greater than 100 µM in each case. The IC50 (in the assay with CWR22R; in the assay on HepG2; in assay [4]; in the assay with MCF7) was greater than 100 µM each time.

Regarding `COc1cc(-c2nc(CN3CCN(Cc4cc5c6ccccc6n(C)c5c(-c5cc(OC)c(OC)c(OC)c5)n4)CC3)cc3c4ccccc4n(C)c23)cc(OC)c1OC`, the IC50 in the assay with 769-P is greater than 100 µM; in the assay on HT-29 it was greater than 100 µM; in the assay on A-375 it was 64.2 µM; in [1], 18.9 µM; in assay [2], 39 µM; in [3], 26.3 µM. Moreover, the IC50 with CWR22R was greater than 100 µM; in the assay with HepG2 it was greater than 100 µM; in [4], 45.3 µM; in the assay with MCF7, 65.6 µM.

Take `c1ccc(CCCn2c3ccccc3c3cc(CN4CCN(Cc5cc6c7ccccc7n(CCCc7ccccc7)c6cn5)CC4)ncc32)cc1`: the IC50 turned out to be 3.02 µM in the assay on 769-P; 18.7 µM in the assay on HT-29; 8.35 µM in the assay on A-375; 5.51 µM in assay [1]; 5.15 µM in [2]; 24.6 µM in [3]. The IC50 in the assay on CWR22R came to 5.32 µM; in the assay on HepG2, 8.95 µM; in assay [4], 7.62 µM; with MCF7 it was 7.62 µM.

Take `COc1ccc(-c2nc(CN3CCN(Cc4cc5c6ccccc6n(C)c5c(-c5ccc(OC)cc5)n4)CC3)cc3c4ccccc4n(C)c23)cc1`: the IC50 in the assay with 769-P is greater than 100 µM; in the assay on HT-29 it was 29 µM; in the assay on A-375 it was 45.7 µM; in [1], 57.8 µM; in assay [2], 69 µM; in assay [3], 68.5 µM. The IC50 in the assay with CWR22R was 47.8 µM; in the assay with HepG2 it was 55 µM; in assay [4], 56.3 µM; in the assay on MCF7, greater than 100 µM.

In the case of `COc1ccc(-c2nc(CN3CCN(Cc4cc5c([nH]c6ccccc65)c(-c5ccc(OC)cc5)n4)CC3)cc3c2[nH]c2ccccc23)cc1`, the IC50 (with 769-P; in the assay with HT-29; with A-375; in [1]; in assay [2]; in [3]) was greater than 100 µM each time. Also, the IC50 (with CWR22R; in the assay with HepG2; in assay [4]; in the assay on MCF7) was greater than 100 µM throughout.
